# Columns and labels:
# Format in all cases: cell-based, mouse
# IL-1β = IL-1β protein by ELISA in LPS-stimulated RAW macrophage cells; settings: RAW293 cells, 0.5 mM before LPS stimulation
# Experimental: ELISA for mouse IL-1 beta: Raw cells were treated as described in real time PCR. 50 ul of conditioned medium or 100 ug of cell lysate was used to determine the amount of IL-1 beta as per manufactory's instruction (Cat. No. MLB00B, Quantikine)
# (§1) The RAW293 mouse macrophage cell model system is commonly used to assess anti-inflammatory activity of compounds. The cells are treated with lipopolysaccharide which induces a massive inflammatory response, of which compounds can be tested for their ability to protect against. RAW293 cells were pretreated with hPULCFA-enriched extract followed by treatment with LPS for 24 hours after which mRNA transcript and protein levels of pro-inflammatory markers including the cytokines tumor necrosis factor alpha (TNFα) and interleukin-1 beta (IL-1β), iNOS as described above, cyclooxygenase 2 (COX2, the enzyme responsible for the production of pro-inflammatory eicosanoids from arachidonic acid) were assessed.
# TNFα = TNFα protein by ELISA in LPS-stimulated RAW macrophage cells; settings: RAW293 cells, 0.5 mM before LPS stimulation
# Experimental: ELISA for mouse TNF alpha: Raw cells were treated as described in real time PCR. Conditioned medium was collected. Cells was briefly washed with ice cold PBS and lysed with lysis buffer (Jerry's recipe); Protein in the cell lysate was quantified using the Bio-Rad Protein Assay (Bio-Rad, Hercules, Calif.). 50 ul of conditioned medium or 100 ug of cell lysate per well was used to determine the amount of TNF alpha as per manufactory's instruction (Cat. No. KMC3011, Invitrogen).
# as §1
# TNFα mRNA transcript = assay: TNFα mRNA by quantitative real-time PCR in LPS-stimulated RAW macrophage cells; settings: RAW264.7 cells, 500 uM (0.5 mM) before LPS stimulation
# Experimental: Quantitative Real time PCR: RAW264.7 cells were seeded at 1×10^6/well in […] plate the day before the treatment. The following day, the cells were treated with different concentration of hPUCLFA(D046) or 1% FA/DMSO (DMSO) as vehicle control for 4 hours; each treatment was in duplicate; then stimulated with LPS at 1 μg/ml (cat. No. L4391, Sigma) for 20 hours. Total RNA was isolated from cell pellets using Trizol (Cat. No. 15596-018, Invitrogen) as per manufacturer's instruction. The RNA pellets were resuspended in 50 μL of DEPC treated water and stored at −80° C. RNA concentration and purity was determined by spectrophotometry at 260 and 280 nm. […]
# as §1, with “The cells are treated with lipopolysaccharide which induces a massive inflammatory response, of which compounds can be tested for their ability to protect against.” left out
smiles,measurement,setting,value
CCCC(O)C/C=C\C(O)/C=C\C/C=C\C/C=C\C/C=C\CCCCCCCCC(=O)O (stereo not drawn) [Compound D046-124],levels of IL-1β in conditioned media,IL-1β,completely blocked
same,TNFα protein level in conditioned media,TNFα,prevented the induction
same,induction of TNFα transcripts,TNFα mRNA transcript,prevented the induction

# Reference: US20120136057A1, “HYDROXY FATTY ACID COMPOUNDS AND USES THEREOF FOR DISEASE TREATMENT AND DIAGNOSIS” (PHENOMENOME DISCOVERIES INC., priority 2009, published 2012)
